The source made the active and inactive calls. The calls are words filed in the database; no cut-off is given here.
What was measured:
[1] = system: Gemcitabine-resistant PANC-1; experiment: Cytotoxicity against human Gemcitabine-resistant PANC-1 cells assessed as inhibition of cell growth incubated for 72 hrs by SRB assay; assay type: functional, cell-based; details: Gemcitabine-resistant PANC-1, 72 h
[2] = biological target: Protein kinase C beta type (Homo sapiens, UniProt P05771); experiment: Inhibition of recombinant full length N-terminal GST-tagged human PKCbeta1 expressed in baculovirus infected Sf9 insect cells using ERMRPRKRQGSVRRRV as substrate incubated for 60 mins in presence of ATP by ADP-glo reagent based luminometric analysis
[3] = system: Gemcitabine-resistant PANC-1; experiment: Downregulation of PKCbeta1expression in human Gemcitabine-resistant PANC-1 cells at 100 nM incubated for 24 hrs by Western blot analysis; assay type: functional, cell-based
[4] = system: Gemcitabine-resistant PANC-1; experiment: Downregulation of PKCdelta expression in human Gemcitabine-resistant PANC-1 cells at 40 to 160 nM incubated for 24 hrs by Western blotting; assay type: functional, cell-based; details: dose 40-160 nM
[5] = biological target: Serine/threonine-protein kinase AKT (Homo sapiens) (UniProt P31751+Q9Y243+P31749); experiment: Inhibition of Akt phosphorylation in human Gemcitabine-resistant PANC-1 cells at 160 nM incubated for 24 hrs by phospho-kinase array analysis; assay type: cell-based
[6] = biological target: T1, Signal transducer and activator of transcription 5A (Homo sapiens) (UniProt P42229); experiment: Inhibition of STAT5 phosphorylation in human Gemcitabine-resistant PANC-1 cells at 160 nM incubated for 24 hrs by phospho-kinase array analysis; assay type: cell-based
T1 sequence (whole entry): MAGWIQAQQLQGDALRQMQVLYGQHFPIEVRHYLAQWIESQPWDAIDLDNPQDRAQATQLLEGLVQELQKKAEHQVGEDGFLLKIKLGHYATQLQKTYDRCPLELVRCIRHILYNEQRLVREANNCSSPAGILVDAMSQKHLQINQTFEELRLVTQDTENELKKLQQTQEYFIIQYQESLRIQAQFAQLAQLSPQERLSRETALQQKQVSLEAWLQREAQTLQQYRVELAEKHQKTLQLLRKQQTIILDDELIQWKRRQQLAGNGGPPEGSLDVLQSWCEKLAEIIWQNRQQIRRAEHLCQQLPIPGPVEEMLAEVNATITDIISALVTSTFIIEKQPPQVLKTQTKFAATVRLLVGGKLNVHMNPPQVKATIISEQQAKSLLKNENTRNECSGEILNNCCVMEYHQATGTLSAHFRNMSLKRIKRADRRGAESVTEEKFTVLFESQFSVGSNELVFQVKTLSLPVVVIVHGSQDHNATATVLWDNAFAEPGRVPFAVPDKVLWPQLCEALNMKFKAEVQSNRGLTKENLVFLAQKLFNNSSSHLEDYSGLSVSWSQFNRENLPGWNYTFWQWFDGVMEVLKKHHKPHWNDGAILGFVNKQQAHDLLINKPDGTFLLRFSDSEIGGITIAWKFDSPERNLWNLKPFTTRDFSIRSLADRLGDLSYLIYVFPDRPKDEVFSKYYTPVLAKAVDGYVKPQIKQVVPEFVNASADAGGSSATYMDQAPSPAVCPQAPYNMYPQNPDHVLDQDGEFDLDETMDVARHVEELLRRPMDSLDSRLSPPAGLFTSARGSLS

[7] = biological target: Proline-rich AKT1 substrate 1 (Homo sapiens) (UniProt Q96B36); experiment: Inhibition of PRAS40 phosphorylation in human Gemcitabine-resistant PANC-1 cells at 160 nM incubated for 24 hrs by phospho-kinase array analysis; assay type: cell-based
[8] = system: Gemcitabine-resistant PANC-1; experiment: Downregulation of p-Akt expression in human Gemcitabine-resistant PANC-1 cells at 40 to 160 nM incubated for 24 hrs by Western blotting; assay type: functional, cell-based; details: dose 40-160 nM
[9] = system: Gemcitabine-resistant PANC-1; experiment: Downregulation of p-GSK3beta expression in human Gemcitabine-resistant PANC-1 cells at 40 to 160 nM incubated for 24 hrs by Western blotting; assay type: functional, cell-based; details: dose 40-160 nM
[10] = system: Gemcitabine-resistant PANC-1; experiment: Downregulation of p-p70S6K expression in human Gemcitabine-resistant PANC-1 cells at 40 to 160 nM incubated for 24 hrs by Western blotting; assay type: functional, cell-based; details: dose 40-160 nM
[11] = system: Gemcitabine-resistant PANC-1; experiment: Effect on GSK3beta expression in human Gemcitabine-resistant PANC-1 cells at 40 to 160 nM by Western blot analysis; assay type: functional, cell-based; details: dose 40-160 nM
[12] = system: Gemcitabine-resistant PANC-1; experiment: Cell cycle distribution in human Gemcitabine-resistant PANC-1 cells assessed as sub-G1 phase cells at 80 nM incubated for 24 hrs by RNase/PI staining based flow cytometric analysis (reference value: 0.30 %); assay type: functional
[13] = system: Gemcitabine-resistant PANC-1; experiment: Cell cycle distribution in human Gemcitabine-resistant PANC-1 cells assessed as G0-G1 phase cells at 40 nM incubated for 24 hrs by RNase/PI staining based flow cytometric analysis (reference value: 45.21 %); assay type: functional
[14] = system: Gemcitabine-resistant PANC-1; experiment: Cell cycle distribution in human Gemcitabine-resistant PANC-1 cells assessed as G0-G1 phase cells at 80 nM incubated for 24 hrs by RNase/PI staining based flow cytometric analysis (reference value: 45.21 %); assay type: functional
[15] = system: Gemcitabine-resistant PANC-1; experiment: Cell cycle distribution in human Gemcitabine-resistant PANC-1 cells assessed as S phase cells at 40 nM incubated for 24 hrs by RNase/PI staining based flow cytometric analysis (reference value: 17.32 %); assay type: functional
[16] = system: Gemcitabine-resistant PANC-1; experiment: Cell cycle distribution in human Gemcitabine-resistant PANC-1 cells assessed as S phase cells at 160 nM incubated for 24 hrs by RNase/PI staining based flow cytometric analysis (reference value: 17.32 %); assay type: functional
[17] = system: Gemcitabine-resistant PANC-1; experiment: Cell cycle distribution in human Gemcitabine-resistant PANC-1 cells assessed as G2/M phase cells at 40 nM incubated for 24 hrs by RNase/PI staining based flow cytometric analysis (reference value: 37.53 %); assay type: functional
[18] = system: Gemcitabine-resistant PANC-1; experiment: Cell cycle distribution in human Gemcitabine-resistant PANC-1 cells assessed as G2/M phase cells at 80 nM incubated for 24 hrs by RNase/PI staining based flow cytometric analysis (reference value: 37.53 %); assay type: functional
[19] = system: Gemcitabine-resistant PANC-1; experiment: Cell cycle distribution in human Gemcitabine-resistant PANC-1 cells assessed as G2/M phase cells at 160 nM incubated for 24 hrs by RNase/PI staining based flow cytometric analysis (reference value: 37.53 %); assay type: functional
[20] = system: Gemcitabine-resistant PANC-1; experiment: Induction of cell cycle arrest in human Gemcitabine-resistant PANC-1 cells assessed as upregulation of cyclin B1 protein expression level at 40 to 160 nM incubated for 24 hrs by Western blot analysis; assay type: functional, cell-based; details: dose 40-160 nM
[21] = system: Gemcitabine-resistant PANC-1; experiment: Induction of cell cycle arrest in human Gemcitabine-resistant PANC-1 cells assessed as upregulation of p27 protein expression level at 40 to 160 nM incubated for 24 hrs by Western blot analysis; assay type: functional, cell-based; details: dose 40-160 nM
[22] = system: Gemcitabine-resistant PANC-1; experiment: Induction of apoptosis in human Gemcitabine-resistant PANC-1 cells assessed as total cell death at 40 nM incubated for 48 hrs by Annexin V-FITC/PI staining based flow cytometric analysis relative to control; assay type: functional
[23] = system: Gemcitabine-resistant PANC-1; experiment: Induction of apoptosis in human Gemcitabine-resistant PANC-1 cells assessed as upregulation of cleaved caspase-3 level at 160 nM incubated for 48 hrs by Western blot analysis; assay type: functional, cell-based
[24] = Toxicity in male BALB/c nude mouse assessed as animal death at 40 mg/kg, ip; assay type: organism-based; details: in vivo
[25] = system: Gemcitabine-resistant PANC-1; experiment: In vivo inhibition of PKCbeta1 in male BALB/c nude mouse xenografted with human Gemcitabine-resistant PANC-1 cells assessed as reduction in PKCbeta1 expression in tumor at 10 mg/kg, ip administered three times in a week for 20 days by Western blot analysis; assay type: functional, organism-based; details: time 20.0 day

Sequence of Serine/threonine-protein kinase AKT (Homo sapiens) (P31749 whole entry, looked up): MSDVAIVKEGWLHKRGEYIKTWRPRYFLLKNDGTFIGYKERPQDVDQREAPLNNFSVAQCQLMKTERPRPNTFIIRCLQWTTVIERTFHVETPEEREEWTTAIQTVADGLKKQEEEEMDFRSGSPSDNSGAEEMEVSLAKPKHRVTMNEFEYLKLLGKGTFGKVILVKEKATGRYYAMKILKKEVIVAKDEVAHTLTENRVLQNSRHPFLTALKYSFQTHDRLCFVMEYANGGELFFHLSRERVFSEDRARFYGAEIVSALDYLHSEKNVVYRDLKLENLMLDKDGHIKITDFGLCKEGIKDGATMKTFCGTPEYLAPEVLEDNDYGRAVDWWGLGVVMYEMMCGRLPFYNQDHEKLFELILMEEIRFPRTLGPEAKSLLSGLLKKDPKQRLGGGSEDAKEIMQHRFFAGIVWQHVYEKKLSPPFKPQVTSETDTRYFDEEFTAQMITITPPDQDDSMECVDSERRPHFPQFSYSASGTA
Sequence of Serine/threonine-protein kinase AKT (Homo sapiens) (P31751 whole entry, looked up): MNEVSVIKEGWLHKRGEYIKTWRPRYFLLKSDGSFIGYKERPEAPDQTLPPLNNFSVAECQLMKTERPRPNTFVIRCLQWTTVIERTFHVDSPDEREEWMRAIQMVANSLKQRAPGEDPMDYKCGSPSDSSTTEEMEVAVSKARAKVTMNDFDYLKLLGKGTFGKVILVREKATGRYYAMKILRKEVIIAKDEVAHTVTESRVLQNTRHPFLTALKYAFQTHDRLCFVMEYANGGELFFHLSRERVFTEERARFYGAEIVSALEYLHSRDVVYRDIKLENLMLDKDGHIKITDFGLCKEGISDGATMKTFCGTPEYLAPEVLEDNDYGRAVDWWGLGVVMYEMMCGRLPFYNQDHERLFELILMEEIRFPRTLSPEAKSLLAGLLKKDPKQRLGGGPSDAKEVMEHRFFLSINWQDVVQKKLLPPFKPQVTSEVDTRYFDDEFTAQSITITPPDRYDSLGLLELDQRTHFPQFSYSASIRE
Sequence of Serine/threonine-protein kinase AKT (Homo sapiens) (Q9Y243 whole entry, looked up): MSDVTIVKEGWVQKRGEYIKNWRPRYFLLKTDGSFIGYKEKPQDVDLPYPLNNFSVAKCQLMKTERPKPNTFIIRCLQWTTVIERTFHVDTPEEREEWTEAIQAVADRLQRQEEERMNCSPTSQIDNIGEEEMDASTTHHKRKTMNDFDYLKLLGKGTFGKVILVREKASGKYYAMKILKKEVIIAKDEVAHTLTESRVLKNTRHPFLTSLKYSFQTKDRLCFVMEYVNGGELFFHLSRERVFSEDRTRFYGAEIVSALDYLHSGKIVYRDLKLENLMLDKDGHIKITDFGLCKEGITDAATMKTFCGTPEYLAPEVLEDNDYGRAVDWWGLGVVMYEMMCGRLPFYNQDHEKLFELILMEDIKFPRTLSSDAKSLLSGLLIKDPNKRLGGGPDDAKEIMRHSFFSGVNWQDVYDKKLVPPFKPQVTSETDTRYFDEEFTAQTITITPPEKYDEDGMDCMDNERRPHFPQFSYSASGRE
Sequence of Protein kinase C beta type (P05771 whole entry): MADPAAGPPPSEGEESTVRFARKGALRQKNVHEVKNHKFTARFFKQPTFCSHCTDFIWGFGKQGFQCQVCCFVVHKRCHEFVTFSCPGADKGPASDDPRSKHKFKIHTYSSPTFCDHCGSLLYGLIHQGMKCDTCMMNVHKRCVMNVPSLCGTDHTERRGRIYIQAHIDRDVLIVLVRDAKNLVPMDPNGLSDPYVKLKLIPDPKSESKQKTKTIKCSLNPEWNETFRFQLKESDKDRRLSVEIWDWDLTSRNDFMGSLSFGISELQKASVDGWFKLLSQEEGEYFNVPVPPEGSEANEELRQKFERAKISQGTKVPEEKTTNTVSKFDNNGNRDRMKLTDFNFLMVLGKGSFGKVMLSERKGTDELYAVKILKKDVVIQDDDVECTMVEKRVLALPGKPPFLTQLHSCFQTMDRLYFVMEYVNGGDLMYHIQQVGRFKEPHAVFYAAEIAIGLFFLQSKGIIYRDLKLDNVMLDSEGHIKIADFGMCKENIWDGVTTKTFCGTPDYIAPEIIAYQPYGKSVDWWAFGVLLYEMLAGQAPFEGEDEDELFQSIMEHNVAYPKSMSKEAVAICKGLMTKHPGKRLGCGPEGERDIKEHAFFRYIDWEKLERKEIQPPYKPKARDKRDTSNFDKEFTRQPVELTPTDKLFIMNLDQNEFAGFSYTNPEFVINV

What does the source list for CC(=O)Oc1ccc2[nH]c3c(c2c1)CCN1C(=O)c2ccccc2N(C)[C@H]31?
IC50 [1]: 70 nM; IC50 [2]: 117 nM; Activity [3]: Active; Activity [4]: inactive; inhibition [5]: Active; inhibition [6]: Active; inhibition [7]: Active; Activity [8]: Active; Activity [9]: Active; Activity [10]: Active; Activity [11]: inactive; Activity [12]: 1.31%; Activity [13]: 42.91%; Activity [14]: 34.14%; Activity [15]: 17.71%; Activity [16]: 14.05%; Activity [17]: 39.38%; Activity [18]: 48.98%; Activity [19]: 58.51%; Activity [20]: Active; Activity [21]: Active; Activity [22]: 15.83%; Activity [23]: Active; Activity [24]: Non-Toxic; inhibition [25]: Active
